22 molecules from US20160039802A1, “3-PYRIMIDIN-4-YL-OXAZOLIDIN-2-ONES AS INHIBITORS OF MUTANT IDH” (NOVARTIS AG, priority 2013, published 2016) can be followed below.

This experiment deals with T1, IDH1 (R132H) mutant (Homo sapiens, UniProt O75874, R132H).
T1 construct: His6 with PreScission site (N, cleaved yes); made in house; host or cells: E. coli Rosetta 2(DE3)
The experiment can be described thus: Fluorescence biochemical assay (NADPH oxidation). The note with it: mIDH R132H 10 nM, 10 μM NADPH, 100 μM α-KG; range where run multiple times. As to the method: The IDH1 (R132H) mutant catalyzes the reduced form of NADP+ (NADPH) and α-ketoglutarate (α-KG) to form nicotinamide adenine dinucleotide phosphate (NADP+) and R(−)-2-hydroxyglutarate (2HG). […] Reactions were monitored using the Perkin-Elmer Envision, Model 2101. […] The final reaction mixture contained 2.5% DMSO and test compounds with concentrations ranging 0.0000008-25 μM. The IDH1 (R132H) enzyme was used at a final concentration of 10 nM. Curve fitting for dose response […] determinations was done in the Helios module of the software package DAVID. The 4-parameter logistic model was used: y=min+((max−min)/1+(x/IC50)^shape)

T1 sequence (O75874 whole entry R132H): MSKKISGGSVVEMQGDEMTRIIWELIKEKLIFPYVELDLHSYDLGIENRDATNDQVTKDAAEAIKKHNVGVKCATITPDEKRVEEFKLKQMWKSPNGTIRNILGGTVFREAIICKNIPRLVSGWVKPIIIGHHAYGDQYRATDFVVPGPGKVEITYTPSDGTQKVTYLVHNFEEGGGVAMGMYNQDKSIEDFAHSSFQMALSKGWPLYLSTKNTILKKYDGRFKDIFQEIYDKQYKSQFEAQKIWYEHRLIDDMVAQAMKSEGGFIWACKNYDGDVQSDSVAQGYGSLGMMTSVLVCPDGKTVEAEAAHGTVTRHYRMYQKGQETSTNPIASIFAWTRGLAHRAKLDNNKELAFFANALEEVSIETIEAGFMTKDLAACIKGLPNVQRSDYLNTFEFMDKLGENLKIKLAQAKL

Turning to `C[C@H](Nc1nccc(N2C(=O)OC[C@@H]2C2CC2)n1)c1cnc(-c2ccc(C(F)F)cc2)s1` [Example 16, (S)-4-cyclopropyl-3-(2-(((S)-1-(2-(4-(difluoromethyl)phenyl)thiazol-5-yl)ethyl)amino)pyrimidin-4-yl)oxazolidin-2-one], the half-maximal inhibitory concentration (IC50) was found to be 29.2 nM.
The value for `C[C@H](Nc1ncc(F)c(N2C(=O)OC[C@@H]2C2CC2)n1)c1nc(-c2ccc(Cl)cc2)no1` [Example 29, (S)-3-(2-((S)-1-(3-(4-chlorophenyl)-1,2,4-oxadiazol-5-yl)ethylamino)-5-fluoropyrimidin-4-yl)-4-cyclopropyloxazolidin-2-one] was 124 nM.
The value for `C[C@H](Nc1ncc(F)c(N2C(=O)OC[C@@H]2C2CC2)n1)c1cnc(C(C)(F)F)c(Cl)c1` [Example 22, (S)-3-(2-((S)-1-(5-chloro-6-(1,1-difluoroethyl)pyridin-3-yl)ethylamino)-5-fluoropyrimidin-4-yl)-4-cyclopropyloxazolidin-2-one] was 1140 nM; that for `C[C@H](Nc1nccc(N2C(=O)OC[C@]2(C)C2CC2)n1)c1ccc(CN2CCC(N3CCOCC3)CC2)cc1` [Example 68, (S)-4-cyclopropyl-4-methyl-3-(2-(((S)-1-(4-((4-morpholinopiperidin-1-yl)methyl)phenyl)ethyl)amino)pyrimidin-4-yl)oxazolidin-2-one] was 96 nM; that for `C[C@H](Nc1nccc(N2C(=O)OC[C@@H]2C2CC2)n1)c1ccc(CN2CCC(N(C)C)C(F)(F)C2)c(F)c1` (stereo partly drawn) [Example 69, (4S)-4-cyclopropyl-3-(2-(((1S)-1-(4-((4-(dimethylamino)-3,3-difluoropiperidin-1-yl)methyl)-3-fluorophenyl)ethyl)amino)pyrimidin-4-yl)oxazolidin-2-one] was 25 nM.
As to `C[C@H](Nc1nc(Cl)cc(N2C(=O)OC[C@@H]2C2CC2)n1)c1cnn(-c2ccc(Cl)cc2)c1` [Example 5, (S)-3-(6-chloro-2-(((S)-1-(1-(4-chlorophenyl)-1H-pyrazol-4-yl)ethyl)amino)pyrimidin-4-yl)-4-cyclopropyloxazolidin-2-one], the IC50 stood at 33.2 nM.
The value for `C[C@H](Nc1nc(Cl)cc(N2C(=O)OC[C@@H]2C2CC2)n1)c1ccccc1` [Example 2, (S)-3-(6-chloro-2-((S)-1-phenylethylamino)pyrimidin-4-yl)-4-cyclopropyloxazolidin-2-one] was 316 nM; that for `Cc1ccc(-c2ncc([C@H](C)Nc3nc(C)cc(N4C(=O)OC[C@@H]4C4CC4)n3)s2)cn1` [Example 13, (S)-4-cyclopropyl-3-(6-methyl-2-(((S)-1-(2-(6-methylpyridin-3-yl)thiazol-5-yl)ethyl)amino)pyrimidin-4-yl)oxazolidin-2-one] was 191 nM; that for `C[C@H](Nc1ncc(F)c(N2C(=O)OC[C@@H]2C2CC2)n1)c1cnc(OCC(F)(F)F)c(Cl)c1` [Example 21, (S)-3-(2-((S)-1-(5-chloro-6-(2,2,2-trifluoroethoxy)pyridin-3-yl)ethylamino)-5-fluoropyrimidin-4-yl)-4-cyclopropyloxazolidin-2-one] was 1200 nM.
The value for `C[C@H](Nc1ncc(F)c(N2C(=O)OC[C@@H]2C2CC2)n1)c1ccccc1` [Example 24, (S)-4-cyclopropyl-3-(5-fluoro-2-((S)-1-phenylethylamino)pyrimidin-4-yl)oxazolidin-2-one] was 1190 nM.
The value for `C[C@H](Nc1nc(Cl)cc(N2C(=O)OC[C@@H]2C2CC2)n1)c1cn(-c2ccc(Cl)cc2)cn1` [Example 26, (S)-3-(6-chloro-2-(((S)-1-(1-(4-chlorophenyl)-1H-imidazol-4-yl)ethyl)amino)pyrimidin-4-yl)-4-cyclopropyloxazolidin-2-one] was 349 nM.
In turn, `C[C@H](Nc1nccc(N2C(=O)OC[C@@H]2C2CC2)n1)c1cnc(-c2ccnc(C(F)(F)F)c2)s1` [Example 15, (S)-4-cyclopropyl-3-(2-(((S)-1-(2-(2-(trifluoromethyl)pyridin-4-yl)thiazol-5-yl)ethyl)amino)pyrimidin-4-yl)oxazolidin-2-one] came in with a half-maximal inhibitory concentration (IC50) of 108 nM.
The value for `C[C@H](Nc1nccc(N2C(=O)OC[C@@H]2C2CC2)n1)c1ccn(-c2ccc(C(F)(F)F)nc2)n1` [Example 17, (S)-4-cyclopropyl-3-(2-(((S)-1-(1-(6-(trifluoromethyl)pyridin-3-yl)-1H-pyrazol-3-yl)ethyl)amino)pyrimidin-4-yl)oxazolidin-2-one] was 169 nM; that for `C[C@H](Nc1nccc(N2C(=O)OC[C@@H]2C2CC2)n1)c1cnc(-c2ccc(C(F)(F)F)nc2)s1` [Example 14, (S)-4-cyclopropyl-3-(2-(((S)-1-(2-(6-(trifluoromethyl)pyridin-3-yl)thiazol-5-yl)ethyl)amino)pyrimidin-4-yl)oxazolidin-2-one] was 49.1 nM; that for `C[C@H](Nc1nccc(N2C(=O)OC[C@]2(C)C2CC2)n1)c1ccc(CN2CCC(N3CCOCC3)CC2)c(F)c1` [Example 67, (S)-4-cyclopropyl-3-(2-(((S)-1-(3-fluoro-4-((4-morpholinopiperidin-1-yl)methyl)phenyl)ethyl)amino)pyrimidin-4-yl)-4-methyloxazolidin-2-one] was 33 nM.
The value for `C[C@H](Nc1nccc(N2C(=O)OC[C@@H]2C2CC2)n1)c1nc(-c2ccc(Cl)cc2)no1` [Example 28, (S)-3-(2-((S)-1-(3-(4-chlorophenyl)-1,2,4-oxadiazol-5-yl)ethylamino)pyrimidin-4-yl)-4-cyclopropyloxazolidin-2-one] was 62.7 nM; that for `C[C@H](Nc1nccc(N2C(=O)OC[C@@H]2C2CC2)n1)c1ccccc1` [Example 23, (S)-4-cyclopropyl-3-(2-((S)-1-phenylethylamino)pyrimidin-4-yl)oxazolidin-2-one] was 1370 nM; that for `C[C@H](Nc1nc(F)cc(N2C(=O)OC[C@@H]2C2CC2)n1)c1ccccc1` [Example 1, (S)-4-cyclopropyl-3-(6-fluoro-2-((S)-1-phenylethylamino)pyrimidin-4-yl)oxazolidin-2-one] was 365 nM.
The value for `Cc1cc(N2C(=O)OC[C@@H]2C2CC2)nc(N[C@H](C)c2cn(-c3ccc(Cl)cc3)nn2)n1` [Example 12, (S)-3-(2-(((R)-1-(1-(4-chlorophenyl)-1H-1,2,3-triazol-4-yl)ethyl)amino)-6-methylpyrimidin-4-yl)-4-cyclopropyloxazolidin-2-one] was 323 nM; that for `C[C@H](Nc1nccc(N2C(=O)OC[C@@H]2C2CC2)n1)c1cnc(OCC(F)(F)F)c(Cl)c1` [Example 25, (S)-3-(2-((S)-1-(5-chloro-6-(2,2,2-trifluoroethoxy)pyridin-3-yl)ethylamino)pyrimidin-4-yl)-4-cyclopropyloxazolidin-2-one] was 372 nM; that for `C[C@H](Nc1nc(Cl)cc(N2C(=O)OC[C@@H]2C2CC2)n1)c1nnc(-c2ccc(Cl)cc2)s1` [Example 4, (S)-3-(6-chloro-2-(((S)-1-(5-(4-chlorophenyl)-1,3,4-thiadiazol-2-yl)ethyl)amino)pyrimidin-4-yl)-4-cyclopropyloxazolidin-2-one] was 24.8 nM.
In turn, `C[C@H](Nc1nc(Cl)cc(N2C(=O)OC[C@@H]2C2CC2)n1)c1cnc(N2CCOCC2)s1` [Example 6, (S)-3-(6-chloro-2-(((S)-1-(2-morpholinothiazol-5-yl)ethyl)amino)pyrimidin-4-yl)-4-cyclopropyloxazolidin-2-one] gave a concentration for half-maximal inhibition (IC50) of 934 nM.
